Results: US20060025471A1, “Xanthenyl cubane analogs with activity at the metabotropic glutamate receptors” (priority 2002, published 2006)

What was measured:
fear induced freezing = experiment: Fear induced freezing model; format: in vivo, rat; details: diazepam at 3 mg/kg; for reduction in freezing, context alone: environment alone; for reduction in freezing, context plus tone: environment with conditioning sound
Description: The anxiolytic properties of a candidate compound can also be examined using the fear induced freezing model. Briefly, this test relies on the induction of a well known effect in rats when they are challenged. The rat is subjected to a mild shock associated with a sound which results in the animal becoming very still when expecting that shock. The effect of a candidate compound on fear induced freezing can be compared with a known standard such as diazepam and a negative control (such as buffer only). The fear induced freezing test can be conducted at various time points following administration of the candidate compound.
The anxiolytic properties of a thioxanthenyl cubane (Compound 6) were also examined using the fear induced freezing model. Briefly, this test relies on the induction of a well known effect in rats when they are challenged. The rat is subjected to a mild shock associated with a sound which results in the animal becoming very still when expecting that shock.
The animal is placed in its home cage for acclimatization before being placed back in the test environment in the presence or absence of test compound. The reduction in freezing is used as a measure of anxiolysis. […] The second paradigm (context plus tone) produces a larger and more difficult to overcome anxiety.

elevated plus maze = experiment: Elevated plus maze test; format: in vivo, rat
Description: The anxiolytic properties of candidate compounds can be further evaluated using the elevated plus maze test. This test is dependent on the predisposition of rodents to remain in the dark and offers the choice between dark areas of the maze and the opportunity to explore lighted areas. The effect of a candidate compound on the elevated plus maze test can be compared with a known standard such as diazepam and a negative control (such as buffer only). The elevated maze plus test can be conducted at various time points following administration of the candidate compound.
To further examine the anxiolytic properties of a thioxanthenyl cubane (Compound 6), the elevated plus maze test was conducted. The elevated plus maze test is sensitive to benzodiazepine type anxiolytics while other anxiolytics such as the serotonin reuptake inhibitors (SSRIs) show poor efficacy in this test. This test is dependent on the predisposition of rodents to remain in the dark and offers the choice between dark areas of the maze and the opportunity to explore lighted areas.

[1] = Functional observational battery (side effect profile); format: in vivo
Description: The side effect profile for an intra-peritoneally administered thioxanthenyl cubane (Compound 6) was examined and compared to diazepam using functional observational battery which is a series of observational markers designed to indicate level of impairment. The greater the functional observational battery score, the greater the impairment.

[2] = system: Cultured hippocampal pyramindal neurons; experiment: In vitro anoxia study, neuronal cell death; format: cell-based; details: 30 minutes anoxia; counts 24 hours post anoxic exposure
Description: The ability of a candidate compound to inhibit neuronal cell death can be examined using an in vitro anoxia study. […] A candidate compound can be administered to the neuronal cell culture at various time points prior to exposure to the anoxic condition to examine the prophylactic activity of the compound or during or after exposure to the anoxic condition to examine therapeutic activity of the compound. Suitable negative controls include, for example, buffer in place of the candidate compound.
The neuroprotective effects of a thioxanthenyl cubane (Compound 6) were examined using an in vitro anoxia study. Cultured hippocampal pyramindal neurons were exposed to anoxic conditions (oxygen free buffer) for 30 minutes. Twenty-four hours post anoxic exposure cell counts were conducted manually.

focal ischemia model = experiment: Starch microsphere infusion focal ischemia model; format: in vivo, rat
Method: Alternatively, the starch microsphere infusion focal ischemia model can be used. Briefly, starch microspheres are injected unilaterally into one of the carotid arteries. Blood flow is temporarily occluded on the injected side for approximately 30 minutes. Reperfusion occurs after the initial starch clot is resolved. At various time points after ischemic insult the brain can be removed and examined for ischemic injury.
The compounds of the present invention have been evaluated in a rat model of focal ischemia which is similar to that seen in strokes in humans. Briefly, starch microspheres are injected unilaterally into one of the carotid arteries. Blood flow is temporarily occluded on the injected side for approximately 30 minutes. Reperfusion occurs after the initial starch clot is resolved. The test compound is administered either prophylactically before vessel occlusion or therapeutically post vessel occlusion.
The neuroprotective effects of a thioxanthenyl cubane (Compound 6) were further examined using a starch microsphere infusion focal ischemia model. Briefly, starch microspheres are injected unilaterally into one of the carotid arteries. Blood flow is temporarily occluded on the injected side for approximately 30 minutes. Reperfusion occurs after the initial starch clot is resolved.
Compound 6 was intra-peritoneally administered at dosages of 0.1, 1.0, and 10 mg/kg either prophylactically or therapeutically. The prophylactic dose schedule included a dose of Compound 6 administered 30 minutes prior to ischemic insult followed by doses at 30 minutes and 3 hours post insult. For therapeutic administration, Compound 6 was administered 3 hours post insult only. […] In addition to providing substantial neuroprotection, Compound 6 reduced the incidence of seizures following ischemic insult in a dose-dependent manner.

[3] = system: rat global ischemia model; experiment: Rat global ischemia model; format: in vivo; details: 1 mg/kg intra-peritoneal post ischemic insult
Description: The neuroprotective effects of a candidate compound can also be evaluated in a number of in vivo animal models including, the rat global ischemia model. Briefly, two of the four cerebral arteries are permanently occluded and surgical silk is loosely placed around the remaining two cerebral arteries. Temporary tightening of the surgical silk leads to 4 vessel occlusion and temporary global ischemia. At various time points after ischemic insult the brain can be removed and examined for ischemic injury.
The neuroprotective effects of a thioxanthenyl cubane (Compound 6) were examined in vivo using the rat global ischemia model. Briefly, two of the four cerebral arteries are permanently occluded and surgical silk is loosely placed around the remaining two cerebral arteries. Temporary tightening of the surgical silk leads to 4 vessel occlusion and temporary global ischemia. Seven days post ischemic insult, the brain is removed and the CA1 region of the hippocampus, a region very suspectible to ischemic damage, is examined.

social interaction = experiment: Social interaction studies; format: in vivo, rat
Method: The effect of a candidate compound on social interaction can also be examined in rodents. Briefly, social interaction can be measured as follows: a strange intruder is introduced into the cage of an acclimatized treated rat and the number of times the rat either bites (# bites) or wrestles (# pins) the intruder is determined. The effect of a candidate compound on social interaction can be compared with a known standard such as diazepam and a negative control (such as buffer only). The social interaction test can be conducted at various time points following administration of the candidate compound.
The effect of a thioxanthenyl cubane (Compound 6) on social interaction was examined in rodents. Briefly, social interaction is measured as follows: a strange intruder is introduced into the cage of an acclimatized treated rat and the number of times the rat either bites (# bites) or wrestles (# pins) the intruder is determined. Compound 6 was administered at three doses and compared to saline and diazepam at 2 mg/kg.

fear potentiated startle = experiment: Fear potentiated startle model; format: in vivo, rats
Description: The fear potentiated startle model permits measurement of learned fear of a stimulus that has been paired with repeated foot shocks. The effect of a candidate compound on fear potentiated startle can be compared with a known standard such as diazepam and a negative control (such as buffer only). The fear potentiated startle test can be conducted at various time points following administration of a candidate compound.
The anxiolytic properties of a thioxanthenyl cubane (Compound 6) were examined using the fear potentiated startle model. This model permits measurement of learned fear of a stimulus that has been paired with repeated foot shocks. The effect of Compound 6 on fear potentiated startle was compared with the known standard, diazepam. All tests were run 30 min after intraperitoneal drug administration. Compound 6 was administered at 1.0, 3.0, 10 and 15 mg/kg in rats.
The oral bioavailability and efficacy of a thioxanthenyl cubane (Compound 6) was studied using the fear potentiated startle model. Compound 6 was administered by gavage at a dose of 12 mg/kg. Following a 90 minute period allowed for drug absorption, the oral efficacy was examined using the fear potentiated startle model. As shown in FIG. 8 oral Compound 6 was effective in reducing the fear potentiated startle model.
The onset and duration of a thioxanthenyl cubane (Compound 6) was studied using the fear potentiated startle model. Thioxanthenyl cubane was administered by gavage at a dose of 15 mg/kg. The effect of oral Compound 6 on fear potentiated startle was examined at 30 minutes, 1, 2, 4, 6 and 8 hours post drug administration.

[4] = Asymmetric grid test (impairment of motor function); format: in vivo; details: 4 mg/kg; compared to the null experiment
Method: To further examine the side effect of profile of Compound 6 the assymmetric grid test was conducted to measure impairment of motor function. Briefly, in the assymetric grid test the animal is placed on one side of a grid pattern, designed to challenge the animals motor function. On the other side of the grid is the animal's home cage or a reward. As the animal enters the grid it is monitored for mistakes by a camera placed horizontally in line with the grid. The camera records the number of forelimb and hindlimb intrusions through the grid and the higher the number, the greater the impairment.

In the case of `NC(CC1c2ccccc2Sc2ccccc21)(C(=O)O)C12C3C4C1C1C2C3C41C(=O)O` (stereo not shown) [Compound 6, 4-carboxycubane-1-thioxanthenyl-1-glycine], the “reduction in freezing, context alone” value (fear induced freezing) is reported as “effective in both scenarios”, the “reduction in freezing, context plus tone” value (fear induced freezing) is reported as “effective in both scenarios” and the “time spent in the exposed (open, light) area of the maze” value (elevated plus maze; 1 mg/kg) is reported as “only a tendency”. For the same molecule, the “impairment, functional observational battery score” value ([1]; in vivo) was “this level of impairment was not observed”, the “number of living cells in anoxic cultures relative to control anoxic cultures” value [2] was 2 to 3 times and the “neuroprotection in treated animals” value (focal ischemia model; 0.1, 1.0, 10 mg/kg intra-peritoneal, no obvious dose dependence) was “Neuroprotection was observed in all animals”. The “ischemic damage to the hippocampus, especially retrospenial and piriform cortices, vs untreated ischemic animals” value (focal ischemia model; 0.1, 1.0, 10 mg/kg intra-peritoneal, prophylactic or therapeutic schedule) was “reduction in ischemic damage”, the “incidence of seizures following ischemic insult” value (focal ischemia model; 0.1-10 mg/kg intra-peritoneal, dose-dependent) was “reduced” and the “difference in neuronal cell number between ipsilateral and contralateral sides of the CA1 region” value (focal ischemia model; prophylactic or therapeutic treatment groups, 0.1, 1.0, 10 mg/kg) was “no significant difference”. The “ischemic damage to the CA1 region of the hippocampus vs untreated ischemic animals” value ([3]; 7 days) was “reduction in ischemic damage”, the “reduction in cell death” value ([3]; 7 days after the procedure) was “greater than 50%” and the “number of bites, compared with diazepam 2 mg/kg” value (social interaction; 10 mg/kg) was “equal reduction”. For the same molecule, the “number of pins, compared with diazepam 2 mg/kg” value (social interaction; 10 mg/kg) was “equal reduction”, the “oral efficacy on fear potentiated startle” value (fear potentiated startle; gavage 12 mg/kg, 90 minute absorption period) was “effective” and the “onset of effect on fear potentiated startle” value (fear potentiated startle; gavage 15 mg/kg) was 30 min. The “time of maximum effect on fear potentiated startle” value (fear potentiated startle; gavage 15 mg/kg) was 4 h, the “time of return of effect to base line” value (fear potentiated startle; gavage 15 mg/kg) was 8 h and the “effect on fear potentiated startle” value (fear potentiated startle; intraperitoneal 1.0, 3.0, 10 and 15 mg/kg, 30 min after administration) was “dose dependent reduction”. For the same molecule, the “effect on fear potentiated startle at the highest dose” value (fear potentiated startle; intraperitoneal, highest dose (15 mg/kg)) was “tendency to reverse the effect” and the “dose of apparent maximum reduction in fear potentiated startle” value (fear potentiated startle; intraperitoneal, 30 min after administration) was 3 mg/kg.
With `CN1C(=O)CN=C(c2ccccc2)c2cc(Cl)ccc21` [diazepam, reference compound] the “reduction in freezing, context alone” value (fear induced freezing) was “effective”, the “reduction in freezing, context plus tone” value (fear induced freezing) was “only effective in the less stringent first paradigm” and the “time spent in the exposed (open, light) area of the maze” value (elevated plus maze; 2 mg/kg) was “clear increase”. For the same molecule, the “impairment, functional observational battery score” value ([1]; intra-peritoneal, high doses (Compound 6 very high doses)) was “large degree of impairment”, the “number of forelimb and hindlimb mistakes” value [4] was “increases significantly” and the number of bites (social interaction; 2 mg/kg) was “clear reduction”. For the same molecule, the number of pins (social interaction; 2 mg/kg) was “clear reduction” and the “effective oral dose level in fear potentiated startle” value (fear potentiated startle; oral dose response (FIG. 9)) was 7 mg/kg.
